Measurements as given in ChEMBL document CHEMBL3885881, “DrugMatrix”.

Species on record: Rattus norvegicus
Assay: DrugMatrix - Regimen: Daily Repeat
Type: toxicity, organism-based, Sprague-Dawley
Design: regimen Daily Repeat, gender Male, age 6-8 weeks
Settings: in vivo, po, 0 mg/kg, route oral GAVAGE, dose level Control, vehicle .5 % CMC; for BASOPHIL / EOSINOPHIL / ERYTHROCYTE COUNT / HEMATOCRIT / HEMOGLOBIN / LEUKOCYTE COUNT / LYMPHOCYTE / MEAN CORPUSCULAR HEMOGLOBIN / MEAN CORPUSCULAR HEMOGLOBIN CONCENTRATION / MEAN CORPUSCULAR VOLUME / MONOCYTE / NEUTROPHIL / PLATELET COUNT: tissue Blood; for ALANINE AMINOTRANSFERASE / ALBUMIN / ALKALINE PHOSPHATASE / ASPARTATE AMINOTRANSFERASE / BLOOD UREA NITROGEN / CHLORIDE / CHOLESTEROL / CREATINE PHOSPHOKINASE / CREATININE / GLUCOSE / PHOSPHORUS / POTASSIUM / SODIUM / TOTAL BILIRUBIN / TOTAL PROTEIN: tissue Plasma

## Clc1ccccc1CN1CCc2sccc2C1 [TICLOPIDINE]
72 h, time 3 day
  BASOPHIL: 0%
  EOSINOPHIL: 0%
  ERYTHROCYTE COUNT: 6.19 x10E6/uL
  HEMATOCRIT: 36.94%
  HEMOGLOBIN: 14.58 G/DL
  LEUKOCYTE COUNT: 11.54 x10E3/uL
  LYMPHOCYTE: 84.8%
  MEAN CORPUSCULAR HEMOGLOBIN: 23.58 pg
  MEAN CORPUSCULAR HEMOGLOBIN CONCENTRATION: 39.44 G/DL
  MEAN CORPUSCULAR VOLUME: 59.76 fL
  MONOCYTE: 1.4%
  NEUTROPHIL: 13.8%
  PLATELET COUNT: 1068.8 x10E3/uL
  ALANINE AMINOTRANSFERASE: 38.17 u/L
  ALBUMIN: 3.88 G/DL
  ALKALINE PHOSPHATASE: 391.33 u/L
  ASPARTATE AMINOTRANSFERASE: 69.83 u/L
  BLOOD UREA NITROGEN: 15 mg/dL
  CHLORIDE: 104.17 MEQ/L
  CHOLESTEROL: 72.17 mg/dL
  CREATINE PHOSPHOKINASE: 174.33 u/L
  CREATININE: 0.58 mg/dL
  GLUCOSE: 192.67 mg/dL
  PHOSPHORUS: 10.52 mg/dL
  POTASSIUM: 6.8 MEQ/L
  SODIUM: 149.67 MEQ/L
  TOTAL BILIRUBIN: 0.78 mg/dL
  TOTAL PROTEIN: 6.28 G/DL
120 h, time 5 day
  BASOPHIL: 0%
  EOSINOPHIL: 0.17%
  ERYTHROCYTE COUNT: 6.72 x10E6/uL
  HEMATOCRIT: 40.02%
  HEMOGLOBIN: 15.83 G/DL
  LEUKOCYTE COUNT: 9.5 x10E3/uL
  LYMPHOCYTE: 87.17%
  MEAN CORPUSCULAR HEMOGLOBIN: 23.57 pg
  MEAN CORPUSCULAR HEMOGLOBIN CONCENTRATION: 39.62 G/DL
  MEAN CORPUSCULAR VOLUME: 59.55 fL
  MONOCYTE: 1.67%
  NEUTROPHIL: 11%
  PLATELET COUNT: 1053.67 x10E3/uL
  ALANINE AMINOTRANSFERASE: 26.33 u/L
  ALBUMIN: 4.02 G/DL
  ALKALINE PHOSPHATASE: 316.67 u/L
  ASPARTATE AMINOTRANSFERASE: 61.33 u/L
  BLOOD UREA NITROGEN: 18.67 mg/dL
  CHLORIDE: 108 MEQ/L
  CHOLESTEROL: 65.17 mg/dL
  CREATINE PHOSPHOKINASE: 161.17 u/L
  CREATININE: 0.75 mg/dL
  GLUCOSE: 177.33 mg/dL
  PHOSPHORUS: 9.72 mg/dL
  POTASSIUM: 6.18 MEQ/L
  SODIUM: 150.5 MEQ/L
  TOTAL BILIRUBIN: 0.68 mg/dL
  TOTAL PROTEIN: 6.55 G/DL
